Test results from patent publication US20230398130A1, “METHODS AND COMPOSITIONS FOR DIFFERENTIATING STEM CELLS” (Massachusetts Institute of Technology, priority 2020, published 2023).

Experiments:
ISC-enriched organoids [1] = assay: Primary screen, 384-well 2.5-D organoid differentiation (ENR+CD, 6 days): basal lysozyme secretion (LYZ.NS); format: cell-based, murine; settings: for Dose.FC.LYZ.NS (log 2 fold change, basal lysozyme secretion) / Dose.FC.LYZ.NS (log 2 fold change): vs plate median; for Dose.FC.LYZ.NS: FC vs plate median; for SSMD.LYZ.NS: strictly standardized mean difference
Excerpt: (§1) High-throughput screening.

ISC-enriched organoids [2] = assay: Primary screen, 384-well 2.5-D organoid differentiation (ENR+CD, 6 days): carbachol-induced lysozyme secretion (LYZ.S); format: cell-based, murine; settings: for Dose.FC.LYZ.S (log 2 fold change, carbachol-induced lysozyme secretion) / Dose.FC.LYZ.S (log 2 fold change): vs plate median; for Dose.FC.LYZ.S / Dose.FC.LYZ.S (log 2 fold change) / Z.LYZ.S / SSMD.LYZ.S: primary screen; for Dose.FC.LYZ.S: FC vs plate median; for Z.LYZ.S: standard z score; for SSMD.LYZ.S: strictly standardized mean difference
Excerpt: as §1

ISC-enriched organoids [3] = assay: Primary screen, 384-well 2.5-D organoid differentiation (ENR+CD, 6 days, Target Selective Inhibitor Library, vs whole-plate median): ATP (CellTiter-Glo 3D, CTG); settings: for Dose.FC.CTG (log 2 fold change, ATP) / Dose.FC.CTG (log 2 fold change): vs plate median; for Dose.FC.CTG: FC vs plate median; for SSMD.CTG: strictly standardized mean difference
[4] = Dose 0.08 uM, standard z score of FC
[5] = Dose 0.40 uM, standard z score of FC
[6] = Dose 2.00 uM, standard z score of FC
[7] = Dose 10.00 uM, standard z score of FC
[8] = Dose 0.08 uM, primary screen, standard z score
[9] = Dose 0.40 uM, primary screen, standard z score
[10] = Dose 2.00 uM, primary screen, standard z score
[11] = Dose 10.00 uM, primary screen, standard z score
[12] = primary screen, 1st of the 4 dose lines of the treatment (dose not given)
[13] = primary screen, 2nd of the 4 dose lines of the treatment (dose not given)
[14] = primary screen, 3rd of the 4 dose lines of the treatment (dose not given)
[15] = primary screen, 4th of the 4 dose lines of the treatment (dose not given)
[16] = 1st of the 4 dose lines of the treatment (dose not given)
[17] = 2nd of the 4 dose lines of the treatment (dose not given)
[18] = 3rd of the 4 dose lines of the treatment (dose not given)
[19] = 4th of the 4 dose lines of the treatment (dose not given)

Structure (SMILES)	Dose.FC.LYZ.NS (ISC-enriched organoids [1]; Dose 0.08 uM, primary screen) [log 2 fold change]	Dose.FC.LYZ.NS (ISC-enriched organoids [1]; Dose 0.40 uM, primary screen) [log 2 fold change]	Dose.FC.LYZ.NS (ISC-enriched organoids [1]; Dose 2.00 uM, primary screen) [log 2 fold change]	Dose.FC.LYZ.NS (ISC-enriched organoids [1]; Dose 10.00 uM, primary screen) [log 2 fold change]	Dose.FC.LYZ.S (ISC-enriched organoids [2]; Dose 0.08 uM) [log 2 fold change]	Dose.FC.LYZ.S (ISC-enriched organoids [2]; Dose 0.40 uM) [log 2 fold change]	Dose.FC.LYZ.S (ISC-enriched organoids [2]; Dose 2.00 uM) [log 2 fold change]	Dose.FC.LYZ.S (ISC-enriched organoids [2]; Dose 10.00 uM) [log 2 fold change]	Dose.FC.CTG (ISC-enriched organoids [3]; Dose 0.08 uM, primary screen) [log 2 fold change]	Dose.FC.CTG (ISC-enriched organoids [3]; Dose 0.40 uM, primary screen) [log 2 fold change]	Dose.FC.CTG (ISC-enriched organoids [3]; Dose 2.00 uM, primary screen) [log 2 fold change]	Dose.FC.CTG (ISC-enriched organoids [3]; Dose 10.00 uM, primary screen) [log 2 fold change]	Z.LYZ.NS (ISC-enriched organoids [1]; [8])	Z.LYZ.NS (ISC-enriched organoids [1]; [9])	Z.LYZ.NS (ISC-enriched organoids [1]; [10])	Z.LYZ.NS (ISC-enriched organoids [1]; [11])	Z.CTG (ISC-enriched organoids [3]; [8])	Z.CTG (ISC-enriched organoids [3]; [9])	Z.CTG (ISC-enriched organoids [3]; [10])	Z.CTG (ISC-enriched organoids [3]; [11])	also measured
C[C@]1(c2nc3c(C(N)=O)cccc3[nH]2)CCCN1 [Veliparib (ABT-888)]																					Z.LYZ.NS (standard z score) (ISC-enriched organoids [1]; dose 0.08 uM): 0.649; Dose.FC.LYZ.NS (log 2 fold change, basal lysozyme secretion) (ISC-enriched organoids [1]; dose 0.08 uM): 0.075; Z.LYZ.NS (standard z score) (ISC-enriched organoids [1]; dose 0.40 uM): 1.211; Dose.FC.LYZ.NS (log 2 fold change, basal lysozyme secretion) (ISC-enriched organoids [1]; dose 0.40 uM): 0.139; Z.LYZ.NS (standard z score) (ISC-enriched organoids [1]; dose 2.00 uM): 0.203; Dose.FC.LYZ.NS (log 2 fold change, basal lysozyme secretion) (ISC-enriched organoids [1]; dose 2.00 uM): 0.023; Z.LYZ.NS (standard z score) (ISC-enriched organoids [1]; dose 10.00 uM): −0.537; Dose.FC.LYZ.NS (log 2 fold change, basal lysozyme secretion) (ISC-enriched organoids [1]; dose 10.00 uM): −0.062; Dose.FC.LYZ.S (log 2 fold change, carbachol-induced lysozyme secretion) (ISC-enriched organoids [2]; dose 0.08 uM): 0.105; Dose.FC.LYZ.S (log 2 fold change, carbachol-induced lysozyme secretion) (ISC-enriched organoids [2]; dose 0.40 uM): 0.179; Dose.FC.LYZ.S (log 2 fold change, carbachol-induced lysozyme secretion) (ISC-enriched organoids [2]; dose 2.00 uM): −0.016; Dose.FC.LYZ.S (log 2 fold change, carbachol-induced lysozyme secretion) (ISC-enriched organoids [2]; dose 10.00 uM): −0.136; Z.CTG (standard z score) (ISC-enriched organoids [3]; dose 0.08 uM): 0.307; Dose.FC.CTG (log 2 fold change, ATP) (ISC-enriched organoids [3]; dose 0.08 uM): 0.128; Z.CTG (standard z score) (ISC-enriched organoids [3]; dose 0.40 uM): 0.132; Dose.FC.CTG (log 2 fold change, ATP) (ISC-enriched organoids [3]; dose 0.40 uM): 0.055; Z.CTG (standard z score) (ISC-enriched organoids [3]; dose 2.00 uM): −0.057; Dose.FC.CTG (log 2 fold change, ATP) (ISC-enriched organoids [3]; dose 2.00 uM): −0.024; Z.CTG (standard z score) (ISC-enriched organoids [3]; dose 10.00 uM): −0.521; Dose.FC.CTG (log 2 fold change, ATP) (ISC-enriched organoids [3]; dose 10.00 uM): −0.218
C=CCc1cccc(/C=N/NC(=O)CN2CCN(Cc3ccccc3)CC2)c1O [PAC-1]	0.157	0.053	0.126	0.068	0.128	0.059	−0.006	0.092	0.095	0.113	−0.241	0.002									Z.LYZ.NS (ISC-enriched organoids [1]; [4]): 1.365; Z.LYZ.NS (ISC-enriched organoids [1]; [5]): 0.457; Z.LYZ.NS (ISC-enriched organoids [1]; [6]): 1.094; Z.LYZ.NS (ISC-enriched organoids [1]; [7]): 0.596; Z.CTG (ISC-enriched organoids [3]; [4]): 0.228; Z.CTG (ISC-enriched organoids [3]; [5]): 0.270; Z.CTG (ISC-enriched organoids [3]; [6]): −0.576; Z.CTG (ISC-enriched organoids [3]; [7]): 0.004
Cc1ccc(S(=O)(=O)Cc2nc(-c3ccc(C(=O)NCc4cccnc4)cc3)oc2C)cc1 [STF-118804]																					Z.LYZ.NS (standard z score) (ISC-enriched organoids [1]; Dose 0.08 uM, primary screen): −1.349; Dose.FC.LYZ.NS (log 2 fold change) (ISC-enriched organoids [1]; Dose 0.08 uM, primary screen): −0.155; Z.LYZ.NS (standard z score) (ISC-enriched organoids [1]; Dose 0.40 uM, primary screen): −1.824; Dose.FC.LYZ.NS (log 2 fold change) (ISC-enriched organoids [1]; Dose 0.40 uM, primary screen): −0.210; Z.LYZ.NS (standard z score) (ISC-enriched organoids [1]; Dose 2.00 uM, primary screen): −1.502; Dose.FC.LYZ.NS (log 2 fold change) (ISC-enriched organoids [1]; Dose 2.00 uM, primary screen): −0.172; Z.LYZ.NS (standard z score) (ISC-enriched organoids [1]; Dose 10.00 uM, primary screen): −1.541; Dose.FC.LYZ.NS (log 2 fold change) (ISC-enriched organoids [1]; Dose 10.00 uM, primary screen): −0.177; Dose.FC.LYZ.S (log 2 fold change) (ISC-enriched organoids [2]; Dose 0.08 uM): −0.257; Dose.FC.LYZ.S (log 2 fold change) (ISC-enriched organoids [2]; Dose 0.40 uM): −0.212; Dose.FC.LYZ.S (log 2 fold change) (ISC-enriched organoids [2]; Dose 2.00 uM): −0.271; Dose.FC.LYZ.S (log 2 fold change) (ISC-enriched organoids [2]; Dose 10.00 uM): −0.300; Z.CTG (standard z score) (ISC-enriched organoids [3]; Dose 0.08 uM, primary screen): −0.360; Dose.FC.CTG (log 2 fold change) (ISC-enriched organoids [3]; Dose 0.08 uM, primary screen): −0.151; Z.CTG (standard z score) (ISC-enriched organoids [3]; Dose 0.40 uM, primary screen): −3.346; Dose.FC.CTG (log 2 fold change) (ISC-enriched organoids [3]; Dose 0.40 uM, primary screen): −1.401; Z.CTG (standard z score) (ISC-enriched organoids [3]; Dose 2.00 uM, primary screen): −2.189; Dose.FC.CTG (log 2 fold change) (ISC-enriched organoids [3]; Dose 2.00 uM, primary screen): −0.916; Z.CTG (standard z score) (ISC-enriched organoids [3]; Dose 10.00 uM, primary screen): −3.195; Dose.FC.CTG (log 2 fold change) (ISC-enriched organoids [3]; Dose 10.00 uM, primary screen): −1.338
Cc1cccc(CC(=O)N2CCc3c2ccc(-c2cn(C)c4ncnc(N)c24)c3F)n1 [GSK2656157]	−0.031	−0.045	−0.033	−0.012	−0.008	0.060	−0.020	0.090	0.068	0.115	0.083	0.119	−0.267	−0.396	−0.291	−0.102	0.162	0.274	0.197	0.284	
CC(C)(C)Cn1c(N)nc2ccc(-c3[nH]c(C(C)(C)C)nc3-c3ccc(F)cc3)nc21 [LY2228820]	0.065	−0.100	0.043	−0.126	−0.017	−0.054	−0.130	−0.164	−0.299	−0.340	−0.339	−0.332	0.569	−0.874	0.377	−1.099	−0.715	−0.812	−0.810	−0.793	SSMD.LYZ.NS (ISC-enriched organoids [1]; [12]): 0.186; SSMD.LYZ.NS (ISC-enriched organoids [1]; [13]): −0.798; SSMD.LYZ.NS (ISC-enriched organoids [1]; [14]): 0.123; SSMD.LYZ.NS (ISC-enriched organoids [1]; [15]): −1.170; Z.LYZ.S (ISC-enriched organoids [2]; [16]): −0.107; Z.LYZ.S (ISC-enriched organoids [2]; [17]): −0.348; Z.LYZ.S (ISC-enriched organoids [2]; [18]): −0.844; Z.LYZ.S (ISC-enriched organoids [2]; [19]): −1.062; SSMD.LYZ.S (ISC-enriched organoids [2]; [16]): −0.087; SSMD.LYZ.S (ISC-enriched organoids [2]; [17]): −0.344; SSMD.LYZ.S (ISC-enriched organoids [2]; [18]): −0.692; SSMD.LYZ.S (ISC-enriched organoids [2]; [19]): −1.268; SSMD.CTG (ISC-enriched organoids [3]; [12]): −0.908; SSMD.CTG (ISC-enriched organoids [3]; [13]): −0.614; SSMD.CTG (ISC-enriched organoids [3]; [14]): −0.794; SSMD.CTG (ISC-enriched organoids [3]; [15]): −0.937
C/C(=N\NC(=S)N1CCC1)c1ccccn1 [NSC 319726]	0.113	−0.090	−0.152	−0.229	0.060	−0.035	−0.248	−0.327	0.132	−0.185	−0.447	−1.907									Z.LYZ.NS (ISC-enriched organoids [1]; [4]): 0.982; Z.LYZ.NS (ISC-enriched organoids [1]; [5]): −0.780; Z.LYZ.NS (ISC-enriched organoids [1]; [6]): −1.323; Z.LYZ.NS (ISC-enriched organoids [1]; [7]): −1.992; Z.CTG (ISC-enriched organoids [3]; [4]): 0.316; Z.CTG (ISC-enriched organoids [3]; [5]): −0.441; Z.CTG (ISC-enriched organoids [3]; [6]): −1.068; Z.CTG (ISC-enriched organoids [3]; [7]): −4.555
COc1ccc2c(c1)c(C1=C(c3c[nH]c4ccccc34)C(=O)NC1=O)cn2CCCN(C)C [Go 6983]	−0.005	0.013	0.091	−0.092	0.021	0.007	−0.010	−0.073	0.021	−0.036	0.058	−0.181	−0.046	0.114	0.791	−0.798	0.050	−0.085	0.138	−0.433	
